According to patent EP1038880B1, “Androstanes and pregnanes for allosteric modulation of GABA receptor” (priority 1994, dated 1995):

Columns and labels:
[1] = system: metrazol induced convulsions; test: animal or person; format: in vivo, mice; details: for responders at 10 mg/kg: 10 min, 10 minutes prior to metrazol (85 mg/kg)
Experimental: Experiments were also performed to determine the physiological relevance of neuroactive steroid and GABA receptor interactions by assessing the ability of the compounds of and used in the invention to prevent metrazol induced convulsions in mice. Mice were injected with various doses of the test compounds of the invention, 10 minutes prior to the injection of metrazol. The time to onset of myoclomis (presence of forelimb clonic activity) induced by metrazol was determined by observing each mouse for a period of 30 minutes. […] Table 6: Antimetrazol Activity of Neuroactive Steroids in Mice
The anticonvulsant tests are similar to that described above. […] The number of animals with tonic and/or clonic convulsions was recorded. In the maximal electroshock test, 50 mA of current at 60 Hz was delivered through corneal electrodes for 200 msec to induce tonic seizure. The ability of compounds to abolish the tonic component was defined as the endpoint. General CNS depression potential was determined by a rotorod test 10 minutes after the injection of compounds where the number of mice staying on a rotating (6 rpm) rod for 1 minute in one of the three trials was determined. […] Table 7. Anticonvulsant Activity of Exemplified Neuroactive Steroids and those of Selected Clinically Useful Anticonvulsants in Mice

[2] = system: N.I.H. Swiss-Webster mice; test: Elevated plus-maze; format: in vivo; details: for response vs control in vivo at 10 mg/kg: Mus musculus, ip, read-out: % Control
Description: The theoretical basis for the elevated plus-maze test is similar to that of the light/dark transition test. […] The apparatus consists of two open-arms and two enclosed-arms. The elevated plus-maze test allows for two measures of anxiety, the number of entries into the open-arms and the time spent on the open-arms, both expressed as a percentage of the total number of entries and time spent in/on both the open-arms and enclosed-arms.
Male N.LH. Swiss-Webster mice (Harlan, Indianapolis, IN) weighing 15-20 g were housed four per cage in polyethylene cages with sawdust bedding. The colony mom was environmentally controlled (22°C) with a 12^- hr light/dark cycle (0600-1800 hr). Food and water were available ad libitum, except during testing. The experiments were run from 0700-1500 hr and groups were counterbalance for time of day effects. Mice were only administered drug or vehicle once.
The apparatus included two open arms perpendicular to two enclosed arms elevated 50 cm from the floor. Each arm was 50 cm long and the walls of the enclosed arms were 40 cm tall. The maze was made completely of black plexiglass. Incandescent 200 W light bulbs were above each of the open arms to produce a strong contrast between the open arms and the enclosed arms.
Ten minutes after an injection, the N.I.H. Swiss-Webster mice were placed in the center of the plus-maze facing an open arm. During the 5 min test period, the number of entries onto the open arms and the enclosed arms, and the time spent in the open arms and enclosed arms were measured. All four paws had to be within an arm for the dependent variable to be measured. Therefore, the time spent in the center of the maze is not counted, so the total time spent in the open arms and the enclosed arms may not equal 5 min.

GR complex = test: [35S]TBPS binding assay (inhibition of [35S]TBPS binding, cerebral cortex P2 homogenate); design: species or system rat; details: for IC50: 2 nM [35S]TBPS, rat cerebral cortex P2 homogenate; for IMAX: maximum inhibition of [35S]TBPS binding
Outline: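 Rat (male Sprague-Dawley) cortical P2 homogenate (0.5 mg protein) in 50 mM Na/K phosphate pH 7.4, 200 mM NaCl, incubated with 2 nM [35S]TBPS plus steroid test compounds (DMSO) in presence of GABA plus (+)bicuculline, 25°C, 90 min. Filtration, scintillation counting; nonspecific binding defined with […].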

[3] = Mus musculus, IP, 10 mg/kg, read-out: % Protected

Row | SMILES | responders at 10 mg/kg [1, 3] [%] | response vs control in vivo at 10 mg/kg [2] [%] | IC50 (GR complex) [nM] | IMAX (GR complex) [%] | % Protected ([1]; PO, 10 mg/kg, water) [%] | % Control ([2]; PO, 10 mg/kg, water) [%] | responders at 40 mg/kg ([1]; Mus musculus, PO, 40 mg/kg, water, read-out: % Protected) [%] | % Protected ([1]; IP, 1 mg/kg, 50% hpbcd) [%] | % Control ([2]; IP, 1 mg/kg, 50% hpbcd) [%]
1 | CC(=O)[C@H]1CC[C@H]2[C@@H]3CC[C@@H]4C[C@@](O)(C#Cc5ccc(-c6ccccc6)cc5)CC[C@]4(C)[C@H]3CC[C@]12C [3β-(4'-biphenylethynyl)-3α-hydroxy-5β-pregnan-20-one] | 0 | 111 | 43 | 83 |  |  |  |  | 
2 | C[C@]12CC[C@@H](O)C[C@H]1CC[C@@H]1[C@@H]2CC[C@]2(C)[C@@H](C(=O)CSS(=O)(=O)[O-])CC[C@@H]12.[Na+] [sodium S-(3α-hydroxy-5β-pregnan-20-on-21-yl) thiosulfate] | 37.5 | 143 | 268 | 88 |  |  |  |  | 
3 | CC(=O)[C@H]1CC[C@H]2[C@@H]3CC[C@@H]4C[C@@](O)(C#CCn5cccn5)CC[C@]4(C)[C@H]3CC[C@]12C [3α-hydroxy-3β-[3-(1'H-pyrazol-1'-yl)-1-propynyl]-5β-pregnan-20-one] | 25 | 116 | 81 | 98 |  |  |  |  | 
4 | CC(=O)c1ccc(C#C[C@@]2(O)CC[C@@]3(C)[C@H](CC[C@@H]4[C@@H]3CC[C@]3(C)[C@@H](C(=O)CO)CC[C@@H]43)C2)cc1 [3β-(4'-acetylphenylethynyl)-3α,21-dihydroxy-5β-pregnan-20-one] | 75 | 115 | 22 | 99 |  |  |  |  | 
5 | COc1ccccc1C#C[C@@]1(O)CC[C@@]2(C)[C@H](CC[C@@H]3[C@@H]2CC[C@]2(C)[C@@H](C(C)=O)CC[C@@H]32)C1 [3α-hydroxy-3β-(2'-methoxyphenyl)ethynyl-5β-pregnan-20-one] | 12.5 | 152 | 238 | 99 |  |  |  |  | 
6 | CC(=O)[C@H]1CC[C@H]2[C@@H]3CC[C@@H]4C[C@@](O)(C#CCn5ccnn5)CC[C@]4(C)[C@H]3CC[C@]12C [3α-Hydroxy-3β-[3-(1'H-1,2,3-triazol-1'-yl)-1-propynyl]-5β-pregnan-20-one] | 25 | 116 | 655 | 102 |  |  |  |  | 
7 | C[C@@]1(O)CC[C@@]2(C)[C@@H](CC[C@@H]3[C@@H]2CC[C@]2(C)[C@@H](C(=O)CSS(=O)(=O)[O-])CC[C@@H]32)C1.[Na+] [sodium S-(3α-hydroxy-3β-methyl-5α-pregnan-20-on-21-yl) thiosulfate] | 62.5 | 125 | 151 | 101 |  |  |  |  | 
8 | C#C[C@@]1(O)CC[C@@]2(C)[C@H](CC[C@@H]3[C@@H]2CC[C@]2(C)[C@@H](C(=O)Cn4cccn4)CC[C@@H]32)C1 [3β-ethynyl-3α-hydroxy-21-(1'-pyrazolyl)-5β-pregnan-20-one] | 62.5 | 180 | 106 | 99 |  |  |  |  | 
9 | C#C[C@@]1(O)CC[C@@]2(C)[C@H](CC[C@@H]3[C@@H]2CC[C@]2(C)[C@@H](C(=O)Cn4ccnc4)CC[C@@H]32)C1 [3β-ethynyl-3α-hydroxy-21-(1'-imidazolyl)-5β-pregnan-20-one] | 50 | 179 | 80 | 103 |  |  |  |  | 
10 | CC(=O)[C@H]1CC[C@H]2[C@@H]3CC[C@@H]4C[C@@](O)(C#CCCCO)CC[C@]4(C)[C@H]3CC[C@]12C [3β-(5'-hydroxy-1'-pentynyl)-3α-hydroxy-5β-pregnan-20-one] | 12.5 | 137 | 58 | 100 |  |  |  |  | 
11 | CC(=O)c1ccc(C#C[C@@]2(O)CC[C@@]3(C)[C@@H](CC[C@@H]4[C@@H]3CC[C@]3(C)[C@@H](C(=O)COC(=O)CCC(=O)[O-])CC[C@@H]43)C2)cc1.[Na+] [3β-(4'-Acetylphenylethynyl)-3α,21-dihidroxy-5α-pregnan-20-one 21-hemisuccinate sodium salt] |  |  |  |  | 80 | 166 |  |  | 
12 | CC(=O)[C@H]1CC[C@H]2[C@@H]3CC[C@@H]4C[C@@](O)(C#Cc5ccc(C)cc5)CC[C@]4(C)[C@H]3CC[C@]12C [3α-hydroxy-3β-(4'-methylphenylethynyl)-5β-pregnan-20-one] | 75 | 148 | 88 | 84 |  |  |  |  | 
13 | C[C@@]1(O)CC[C@@]2(C)[C@@H](CC[C@@H]3[C@@H]2CC[C@]2(C)[C@@H](C(=O)Cn4cncn4)CC[C@@H]32)C1 [3α-Hydroxy-3β-methyl-21-(1',2',4'-triazolyl)-5α-pregnan-20-one] | 87.5 | 153 | 125 | 105 |  |  |  |  | 
14 | C[C@]12CC[C@](O)(C#CCCO)C[C@H]1CC[C@@H]1[C@@H]2CC[C@]2(C)[C@@H](C(=O)CSS(=O)(=O)O)CC[C@@H]12 [sodium S-[3α-hydroxy-3β-(4'-hydroxybutynyl)-5β-pregnan-20-on-21-yl] thiosulfate] |  | 135 | 107 | 97 |  |  | 33.3 |  | 
15 | CC(=O)c1ccc(C#C[C@@]2(O)CC[C@@]3(C)[C@H](CC[C@@H]4[C@@H]3CC[C@]3(C)[C@@H](C(C)=O)CC[C@@H]43)C2)s1 [3β-(5-Acetylthien-2-yl)ethynyl-3α-hydroxy-5β-pregnan-20-one] | 25 | 83 | 52 | 89 |  |  |  |  | 
16 | C[C@]12CC[C@@H](O)C[C@H]1CC[C@@H]1[C@@H]2CC[C@]2(C)[C@@H](C(=O)Cn3cccn3)CC[C@@H]12 [3α-hydroxy-21-(pyrazol-1-yl)-5β-pregnan 20-one] | 62.5 | 129 | 121 | 67 |  |  |  |  | 
17 | CC(=O)[C@H]1CC[C@H]2[C@@H]3CC[C@@H]4C[C@@](O)(C#CCOc5ccncc5)CC[C@]4(C)[C@H]3CC[C@]12C [3α-Hydroxy-3β-[3-(4'-pyridinyloxy)-1-propynyl]-5β-pregnan-20-one] | 12.5 |  | 465 | 94 |  |  |  |  | 
18 | CC(=O)[C@H]1CC[C@H]2[C@@H]3CC[C@@H]4C[C@@](O)(C#Cc5cccs5)CC[C@]4(C)[C@H]3CC[C@]12C [3α-hydroxy-3β-(2'-thienyl)ethynyl-5β-pregnan-20-one] | 37.5 | 148 | 59 | 100 |  |  |  |  | 
19 | CC(=O)c1ccc(C#CC2(O)CCC3(C)C(CCC4C3CCC3(C)C(C(=O)CO)CCC43)C2)cc1 (stereo not drawn) [3β-(4'-Acetylphenylethynyl)-3α-21-dihydroxy-5α-pregnan-20-one] |  |  | 4 | 92 |  |  |  | 87.5 | 150
20 | CC(=O)c1ccc(C#CC2(O)CCC3(C)C(CCC4C3CCC3(C)C(C(=O)COC(=O)CCC(=O)[O-])CCC43)C2)cc1.[Na+] (stereo not drawn) [3β-(4'-Acetylphenylethynyl)-3α,21-dihydroxy-5β-pregnan-20-one 21-hemisuccinate sodium salt] |  |  |  |  | 75 | 248 |  |  | 
21 | C[C@@]1(O)CC[C@@]2(C)[C@@H](CC[C@@H]3[C@@H]2CC[C@]2(C)[C@@H](C(=O)Cn4cccn4)CC[C@@H]32)C1 [3α-hydroxy-21-(1'-pyrazolyl)-3β-methyl-5α-pregnan-20-one] | 87.5 | 154 | 115 | 98 |  |  |  |  | 
22 | CC(=O)[C@H]1CC[C@H]2[C@@H]3CC[C@@H]4C[C@@](O)(C#Cc5ccccn5)CC[C@]4(C)[C@H]3CC[C@]12C [3α-Hydroxy-3β-(2-pyridyl)ethynyl-5β-pregnan-20-one] | 37.5 | 123 | 108 | 98 |  |  |  |  | 
